In brackets after ≈: the same amount, converted by molar mass. Several values for one entry are separate records, joined by “and”; a condition that tells them apart may be missing. Equal entries are not always repeated.
What was measured:
[1] = system: Escherichia coli (NCIM 2065); experiment: Antibacterial susceptibility test, microbroth dilution MIC; type: cell-based; settings: E. Coli (NCIM 2065); mean ± SD
MRSA (NCIM 5021) [2] = experiment: as above; type: cell-based, methicillin-resistant Staphylococcus aureus; settings: mean ± SD
MRSA (ATCC43300) [3] = experiment: as above; type: cell-based, methicillin-resistant Staphylococcus aureus; settings: mean ± SD
[4] = system: Escherichia coli (NCIM 2065); experiment: Minimum bactericidal concentration (MBC); type: cell-based; settings: E. Coli (NCIM 2065); for MBC/MIC: ratio ≤2 bactericidal, ≥4 tolerance
Description: (§1) MBC can be defined as the minimum concentration of a compound required to kill the bacteria over a fixed period under precise conditions. […] Colonies were counted, and colony forming unit (CFU) per milliliter was calculated.

MRSA (ATCC43300) [5] = experiment: Minimum bactericidal concentration (MBC); type: cell-based, methicillin-resistant Staphylococcus aureus
Description: as §1

MRSA (NCIM 5021) [6] = experiment: Minimum bactericidal concentration (MBC); type: cell-based, methicillin-resistant Staphylococcus aureus
Description: as §1

E. coli ParE enzyme = molecular target: T1, E. coli ParE enzyme (Escherichia coli, UniProt P20083); experiment: E. coli ParE ATPase enzyme inhibition assay (ProFoldin kit, malachite green); type: biochemical; settings: ATPase activity, mean ± SD (n = 3)
T1 construct: purchased ProFoldin, Hudson, United States
Description: The assay was performed as per the standard protocol provided by the ProFoldin. […] ParE hydrolyzes ATP as the source of molecular energy to perform decatenation reactions. Fluoroquinolones and aminocoumarins usually block ATPase activity to hinder the biological activities of topoisomerase II. Thus, the topoisomerase ATPase assay can be used for high-throughput screening of topoisomerase inhibitors. The ATPase activity of the E. coli ParE enzyme was based on the detection of inorganic phosphate produced by the hydrolysis of ATP in the presence of DNA. The phosphate is detected using a microplate reader at an absorbance wavelength of 650 nm. The selected compounds were tested for the inhibition of ATPase activity of ParE enzyme. […] The reaction mixture was incubated for 1 h at 37°C and then quenched with 45 μL of Dye. Incubate for 5 min, and the absorbance was measured at 650 nm. The IC50 values were determined from the absorbance readings using no enzyme and no compound controls. They were calculated using the non-linear regression curve fit method.

Vero cells [7] = system: Vero cells
[8] = system: Klebsiella pneumonia (NCIM 2706); set-up: method as in Yele et al., 2020, 2021; settings: ref Yele et al., 2020, 2021; cited from earlier work
[9] = system: Pseudomonas aeruginosa (NCIM 2036); set-up: method as in Yele et al., 2020, 2021; settings: ref Yele et al., 2020, 2021; cited from earlier work
[10] = system: Escherichia coli (NCIM 2567); set-up: method as in Yele et al., 2020, 2021; settings: ref Yele et al., 2020, 2021; cited from earlier work
[11] = system: Staphylococcus epidermis (NCIM 2493); set-up: method as in Yele et al., 2020, 2021; settings: ref Yele et al., 2020, 2021; cited from earlier work
[12] = system: Staphylococcus aureus (NCIM 5022); set-up: method as in Yele et al., 2020, 2021; settings: ref Yele et al., 2020, 2021; cited from earlier work
[13] = system: Bacillus subtilis (NCIM 2545); set-up: method as in Yele et al., 2020, 2021; settings: ref Yele et al., 2020, 2021; cited from earlier work
[14] = system: Mycobacterium tuberculosis (NCIM 2984); set-up: method as in Yele et al., 2020, 2021; settings: ref Yele et al., 2020, 2021; cited from earlier work
Vero cells [15] = experiment: In vitro cytotoxicity MTT assay; settings: CC50 Vero cells / IC50
E. coli [16] = experiment: Checkerboard synergy with FDA approved drugs; type: cell-based, Escherichia coli
E. coli [17] = experiment: Post antibiotic effect (PAE); type: cell-based, Escherichia coli; settings: for Time for 1 log10: untreated control 2 h

T1 sequence (P20083 whole entry): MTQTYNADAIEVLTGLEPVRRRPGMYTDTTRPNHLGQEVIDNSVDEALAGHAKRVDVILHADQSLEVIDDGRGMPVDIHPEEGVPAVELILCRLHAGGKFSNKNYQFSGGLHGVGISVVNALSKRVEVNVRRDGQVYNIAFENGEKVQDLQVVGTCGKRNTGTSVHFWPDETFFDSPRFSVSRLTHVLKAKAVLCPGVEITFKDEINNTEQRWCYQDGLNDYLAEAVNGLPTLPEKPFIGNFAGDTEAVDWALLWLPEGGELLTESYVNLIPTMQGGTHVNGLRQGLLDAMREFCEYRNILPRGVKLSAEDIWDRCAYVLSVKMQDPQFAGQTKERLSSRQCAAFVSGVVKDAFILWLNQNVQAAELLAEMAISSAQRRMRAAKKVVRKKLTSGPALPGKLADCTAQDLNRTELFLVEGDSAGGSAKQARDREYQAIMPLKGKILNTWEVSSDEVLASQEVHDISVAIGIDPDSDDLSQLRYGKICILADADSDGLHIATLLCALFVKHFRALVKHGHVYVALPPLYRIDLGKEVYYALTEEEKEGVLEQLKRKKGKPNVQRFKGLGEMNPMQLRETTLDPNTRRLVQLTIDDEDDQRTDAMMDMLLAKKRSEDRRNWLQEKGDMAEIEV
T1 sequence (P0AFI2 whole entry, further chain): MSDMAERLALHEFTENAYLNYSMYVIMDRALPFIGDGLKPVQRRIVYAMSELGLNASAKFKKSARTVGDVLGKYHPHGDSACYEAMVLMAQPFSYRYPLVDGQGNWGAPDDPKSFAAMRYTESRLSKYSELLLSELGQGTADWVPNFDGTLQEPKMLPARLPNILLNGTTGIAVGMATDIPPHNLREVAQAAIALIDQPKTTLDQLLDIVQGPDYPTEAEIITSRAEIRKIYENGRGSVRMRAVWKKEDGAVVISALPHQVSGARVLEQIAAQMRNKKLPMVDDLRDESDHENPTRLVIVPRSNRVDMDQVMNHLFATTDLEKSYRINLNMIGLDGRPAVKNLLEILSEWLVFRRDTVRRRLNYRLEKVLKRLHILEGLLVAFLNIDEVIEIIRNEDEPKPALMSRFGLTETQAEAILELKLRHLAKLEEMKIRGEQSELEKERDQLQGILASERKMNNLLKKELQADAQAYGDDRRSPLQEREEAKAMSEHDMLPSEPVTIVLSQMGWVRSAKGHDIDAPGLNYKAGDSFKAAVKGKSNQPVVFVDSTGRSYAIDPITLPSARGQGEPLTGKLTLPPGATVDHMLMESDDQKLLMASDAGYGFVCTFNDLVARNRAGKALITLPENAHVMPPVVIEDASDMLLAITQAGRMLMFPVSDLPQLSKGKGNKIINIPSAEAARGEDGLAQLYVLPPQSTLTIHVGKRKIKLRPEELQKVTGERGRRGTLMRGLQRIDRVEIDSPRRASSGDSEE

| SMILES | Minimum inhibitory concentration [1] | Minimum inhibitory concentration (MRSA (NCIM 5021) [2]) [µg/mL] | Minimum inhibitory concentration (MRSA (ATCC43300) [3]) [µg/mL] | MBC [4] [µg/mL] | MBC/MIC [4] | MBC (MRSA (ATCC43300) [5]) [µg/mL] | MBC/MIC (MRSA (ATCC43300) [5]) | MBC (MRSA (NCIM 5021) [6]) [µg/mL] | MBC/MIC (MRSA (NCIM 5021) [6]) | IC50 against E. coli ParE enzyme (E. coli ParE enzyme) [µg/mL] | CC50 (Vero cells [7]) [µg/mL] | Minimum inhibitory concentration (MIC) K. p [8] | Minimum inhibitory concentration (MIC) P. a [9] | Minimum inhibitory concentration (MIC) E. c [10] | Minimum inhibitory concentration (MIC) S. e [11] | Minimum inhibitory concentration (MIC) S. a [12] | Minimum inhibitory concentration (MIC) B. s [13] | Minimum inhibitory concentration (MIC) M. t [14] | SI (CC50/IC50) (Vero cells [15]) | other results |
| --- | --- | --- | --- | --- | --- | --- | --- | --- | --- | --- | --- | --- | --- | --- | --- | --- | --- | --- | --- | --- |
| O=C(COc1ccccc1NC(=O)CCl)Nc1ccc([N+](=O)[O-])cc1 [Compound 1] | 0.72 µg/mL and 0.72 ± 0.07 µg/mL | 0.84 ± 0.13 (≈ 2.31 µM) | 0.99 ± 0.24 (≈ 2.72 µM) | 1.42 ± 0.02 (≈ 3.9 µM) | 2 | 0.99 ± 0.24 (≈ 2.72 µM) | 1 | 0.84 ± 0.13 (≈ 2.31 µM) | 1 | 0.99 ± 0.01 (≈ 2.72 µM) | 213.9002 (≈ 588 µM) | 0.78 | 0.69 | 0.75 | 2.98 | 2.56 | 3.62 | 3.85 | 216.0608 |  |
| Cc1cccc([N+](=O)[O-])c1NC(=O)COc1ccccc1NC(=O)CCl [Compound 4] | 2.49 ± 0.31 µg/mL (≈ 6.59 µM) | 2.69 ± 0.49 (≈ 7.12 µM) | 2.52 ± 0.37 (≈ 6.67 µM) | 4.71 ± 0.03 (≈ 12.5 µM) | 2 | 8.76 ± 0.21 (≈ 23.2 µM) | 3 | 8.00 ± 0.04 (≈ 21.2 µM) | 3 | 0.95 (≈ 2.51 µM) | 163.9911 (≈ 434 µM) | 11.90 | 19.90 | 4.45 | 2.05 | 4.12 | 5.97 | 0.75 | 169.0629 |  |
| O=C(COc1ccccc1NC(=O)CCl)NNC(=O)c1ccc([N+](=O)[O-])cc1 [Compound 14] | 4.14 ± 0.07 µg/mL (≈ 10.2 µM) | 4.35 ± 0.09 (≈ 10.7 µM) | 0.94 ± 0.14 (≈ 2.31 µM) |  | 1 | 0.94 ± 0.14 (≈ 2.31 µM) | 1 |  |  | 0.36 ± 0.03 (≈ 0.885 µM) | 64.7605 (≈ 159 µM) | 0.98 | 1.98 | 0.80 | 5.61 | 8.56 | 5.70 | 2.56 | 179.8902 |  |
| O=C(COc1ccccc1NC(=O)CCl)NNc1ccc([N+](=O)[O-])cc1[N+](=O)[O-] [Compound 17] | 3.41 ± 0.25 µg/mL (≈ 8.05 µM) | 3.71 ± 0.15 (≈ 8.75 µM) | 3.23 ± 0.21 (≈ 7.62 µM) | 7.2 ± 0.7 (≈ 17 µM) | 2 |  |  | 7.46 ± 0.05 (≈ 17.6 µM) | 2 | 0.86 ± 0.12 (≈ 2.03 µM) | 150.8056 (≈ 356 µM) | 1.26 | 0.98 | 1.25 | 3.56 | 2.38 | 4.89 | 0.98 | 175.3553 |  |
| O=C(CSc1nc2ccccc2s1)Nc1ccc([N+](=O)[O-])cc1 [Compound 24] | 0.78 µg/mL and 0.78 ± 0.08 µg/mL | 0.81 ± 0.10 (≈ 2.35 µM) | 0.73 ± 0.12 (≈ 2.11 µM) | 0.78 ± 0.08 (≈ 2.26 µM) | 1 | 0.73 ± 0.12 (≈ 2.11 µM) | 1 | 0.81 ± 0.10 (≈ 2.35 µM) | 1 |  | 168.8089 (≈ 489 µM) | 2.24 | 15.0 | 2.17 | 1.98 | 0.78 | 1.97 | 2.52 | 351.6852 |  |
| O=C(CNc1nc2ccccc2s1)Nc1ccccc1 [Compound 26] | 2.64 ± 0.31 µg/mL (≈ 9.32 µM) | 2.77 ± 0.21 (≈ 9.78 µM) | 2.78 ± 0.20 (≈ 9.81 µM) | 0.72 ± 0.05 (≈ 2.54 µM) | 1 | 4.32 ± 0.10 (≈ 15.2 µM) | 4 | 0.86 ± 0.13 (≈ 3.04 µM) | 1 | 1.54 (≈ 5.43 µM) |  | 1.31 | 1.22 | 1.05 | 8.14 | 0.98 | 3.65 | 10.1 |  |  |
| COc1ccc(OCC(=O)Nc2ccc(C(=O)O)cc2)cc1 [Compound 27] | 1.59 ± 0.38 µg/mL (≈ 5.28 µM) | 1.71 ± 0.24 (≈ 5.68 µM) | 1.06 ± 0.14 (≈ 3.52 µM) | 1.59 ± 0.38 (≈ 5.28 µM) | 1 | 1.06 ± 0.14 (≈ 3.52 µM) | 1 | 3.55 ± 0.07 (≈ 11.8 µM) | 2 | 1.30 (≈ 4.31 µM) |  | 1.40 | 2.21 | 0.98 | 0.94 | 0.94 | 3.06 | 0.79 |  |  |
| O=C(COc1ccc2ccccc2c1)Nc1ccc(Cl)cc1 [Compound 29] | 0.81 ± 0.14 µg/mL (≈ 2.6 µM) | 0.75 ± 0.19 (≈ 2.41 µM) | 0.91 ± 0.11 (≈ 2.92 µM) | 0.81 ± 0.14 (≈ 2.6 µM) | 1 | 0.91 ± 0.11 (≈ 2.92 µM) | 1 | 0.75 ± 0.19 (≈ 2.41 µM) | 1 | 2.77 (≈ 8.88 µM) |  | 0.88 | 5.48 | 0.77 | 4.70 | 0.90 | 4.69 | 0.77 |  |  |
| CNC(C)C1CCC(N)C(OC2C(N)CC(N)C(OC3OCC(C)(O)C(NC)C3O)C2O)O1 (stereo not shown) [Gentamicin] |  |  |  |  |  |  |  |  |  |  |  |  |  |  |  |  |  |  |  | FIC A (E. coli [16]; FIC of compound 5 in combination): 0.1453; FIC A (E. coli [16]; FIC of compound 21 in combination with the row's drug): 0.1907; FIC B (E. coli [16]; FIC of the drug in combination with compound 5): 0.1254; FIC B (E. coli [16]; FIC of the drug in combination with compound 21): 0.1510; Inference (E. coli [16]; drug combined with compound 5): Synergistic (synergistic when the ΣFICs is ≤ 0.5); Inference (E. coli [16]; drug combined with compound 21): Synergistic (synergistic when the ΣFICs is ≤ 0.5); ΣFIC A + FIC B (E. coli [16]; drug combined with compound 21): 0.3417; PAE = T - C (E. coli [17]; 1 × mic): 0 h; Time for 1 log10 (E. coli [17]; 1 × mic): 2 h; PAE = T - C (E. coli [17]; 10 × mic): 1 h; Time for 1 log10 (E. coli [17]; 10 × mic): 3 h |

Source: PMC8247773, “Benzohydrazide and Phenylacetamide Scaffolds: New Putative ParE Inhibitors” (Frontiers in Bioengineering and Biotechnology, 2021)
